The assay deals with HCT116 colorectal cancer cells. Description: Cisplatin sensitization assay (96 h cell viability MTS).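 Further: compound concentration needed to lower the Cisplatin-alone IC50 by a set fold.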 The format is cell-based. To be noted: 96 h MTS, compound plus Cisplatin. In a few lines:
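Viability was measured by MTS after 96 h co-exposure of HCT116 colorectal cells to a full-matrix dilution grid of compound and cisplatin (2-fold steps, highest final concentration 10 μM, added together). Plates were kept at 37 °C in 5% CO2, and the MTS reagent was incubated for 1 h before reading.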
Take `COCCS(=O)(=O)C1CCN(c2ccncc2NC(=O)c2c(N)nn3cc(F)cnc23)CC1` [I-N-208, 2-amino-6-fluoro-N-(4-(4-((2-methoxyethyl)sulfonyl)piperidin-1-yl)pyridin-3-yl)pyrazolo[1,5-a]pyrimidine-3-carboxamide]: the “Cisplatin Sensitization Assay” value is on record as “+++ (Compounds with a Cisplatin sensitization value of <0.02 μM are marked with “+++.”)”. For `CN1CCN(c2ccncc2NC(=O)c2c(N)nn3cc(F)cnc23)CC1=O` [I-N-209, 2-amino-6-fluoro-N-(4-(4-methyl-3-oxopiperazin-1-yl)pyridin-3-yl)pyrazolo[1,5-a]pyrimidine-3-carboxamide] the value was “+++ (Compounds with a Cisplatin sensitization value of <0.02 μM are marked with “+++.”)”; for `Nc1nn2cc(F)cnc2c1C(=O)Nc1cnccc1N1CCS(=O)(=O)CC1` [I-N-210, 2-amino-N-(4-(1,1-dioxidothiomorpholino)pyridin-3-yl)-6-fluoropyrazolo[1,5-a]pyrimidine-3-carboxamide], “+++ (Compounds with a Cisplatin sensitization value of <0.02 μM are marked with “+++.”)”; for `Nc1nn2cc(F)cnc2c1C(=O)Nc1cncc(F)c1N1CCN(C(=O)C2CCN(C3COC3)CC2)CC1` [I-N-211, 2-amino-6-fluoro-N-(5-fluoro-4-(4-(1-(oxetan-3-yl)piperidine-4-carbonyl)piperazin-1-yl)pyridin-3-yl)pyrazolo[1,5-a]pyrimidine-3-carboxamide], “++ (Compounds with a Cisplatin sensitization value >0.02 μM but <0.2 μM are marked with “++.”)”.

Consider `CN1CCN(c2c(F)cncc2NC(=O)c2c(N)nn3cc(F)cnc23)CC1=O` [I-N-212, 2-amino-6-fluoro-N-(5-fluoro-4-(4-methyl-3-oxopiperazin-1-yl)pyridin-3-yl)pyrazolo[1,5-a]pyrimidine-3-carboxamide], for which the “Cisplatin Sensitization Assay” value is “+++ (Compounds with a Cisplatin sensitization value of <0.02 μM are marked with “+++.”)”. Consider `Nc1nn2cc(F)cnc2c1C(=O)Nc1cncc(F)c1N1CCC(CN2CCCC2=O)CC1` [I-N-213, 2-amino-6-fluoro-N-(5-fluoro-4-(4-((2-oxopyrrolidin-1-yl)methyl)piperidin-1-yl)pyridin-3-yl)pyrazolo[1,5-a]pyrimidine-3-carboxamide], for which the “Cisplatin Sensitization Assay” value is “+++ (Compounds with a Cisplatin sensitization value of <0.02 μM are marked with “+++.”)”.

Consider `CN1CCCCC1C(=O)N1CCN(c2c(F)cncc2NC(=O)c2c(N)nn3cc(F)cnc23)CC1` (stereo not shown) [I-N-214, 2-amino-6-fluoro-N-(5-fluoro-4-(4-(1-methylpiperidine-2-carbonyl)piperazin-1-yl)pyridin-3-yl)pyrazolo[1,5-a]pyrimidine-3-carboxamide], for which the “Cisplatin Sensitization Assay” value is listed as “++ (Compounds with a Cisplatin sensitization value >0.02 μM but <0.2 μM are marked with “++.”)”.

On to `CS(=O)(=O)CC1CCN(c2ccncc2NC(=O)c2c(N)nn3cc(F)cnc23)CC1` [I-N-215, 2-amino-6-fluoro-N-(4-(4-((methylsulfonyl)methyl)piperidin-1-yl)pyridin-3-yl)pyrazolo[1,5-a]pyrimidine-3-carboxamide], for which the “Cisplatin Sensitization Assay” value is recorded as “+++ (Compounds with a Cisplatin sensitization value of <0.02 μM are marked with “+++.”)”. Regarding `CN1CC2(CCN(c3ccncc3NC(=O)c3c(N)nn4cc(F)cnc34)CC2)OC1=O` [I-N-216, 2-amino-6-fluoro-N-(4-(3-methyl-2-oxo-1-oxa-3,8-diazaspiro[4.5]decan-8-yl)pyridin-3-yl)pyrazolo[1,5-a]pyrimidine-3-carboxamide], the “Cisplatin Sensitization Assay” value was “+++ (Compounds with a Cisplatin sensitization value of <0.02 μM are marked with “+++.”)”. The value for `Nc1nn2cc(F)cnc2c1C(=O)Nc1cnccc1N1CCN2C(=O)CC[C@H]2C1` [I-N-217, (S)-2-amino-6-fluoro-N-(4-(6-oxohexahydropyrrolo[1,2-a]pyrazin-2(1H)-yl)pyridin-3-yl)pyrazolo[1,5-a]pyrimidine-3-carboxamide] was “++ (Compounds with a Cisplatin sensitization value >0.02 μM but <0.2 μM are marked with “++.”)”. Regarding `Cc1nc(C)n(-c2ccncc2NC(=O)c2c(N)nn3cc(F)cnc23)n1` [I-N-218, 2-amino-N-(4-(3,5-dimethyl-1H-1,2,4-triazol-1-yl)pyridin-3-yl)-6-fluoropyrazolo[1,5-a]pyrimidine-3-carboxamide], the “Cisplatin Sensitization Assay” value is given as “+ (Compounds with a Cisplatin sensitization value >0.2 μM but <5 μM are marked with “+.”)”. For `Nc1nn2cc(F)cnc2c1C(=O)Nc1cnccc1-n1ccnc1C(F)(F)F` [I-N-219, 2-amino-6-fluoro-N-(4-(2-(trifluoromethyl)-1H-imidazol-1-yl)pyridin-3-yl)pyrazolo[1,5-a]pyrimidine-3-carboxamide] the value was “+++ (Compounds with a Cisplatin sensitization value of <0.02 μM are marked with “+++.”)”; for `CC1(C)CCCN1c1ccncc1NC(=O)c1c(N)nn2cc(F)cnc12` [I-N-220, 2-amino-N-(4-(2,2-dimethylpyrrolidin-1-yl)pyridin-3-yl)-6-fluoropyrazolo[1,5-a]pyrimidine-3-carboxamide], “++ (Compounds with a Cisplatin sensitization value >0.02 μM but <0.2 μM are marked with “++.”)”; for `CS(=O)(=O)C1CCCN(c2ccncc2NC(=O)c2c(N)nn3cc(F)cnc23)C1` (stereo not shown) [I-N-221, 2-amino-6-fluoro-N-(4-(3-(methylsulfonyl)piperidin-1-yl)pyridin-3-yl)pyrazolo[1,5-a]pyrimidine-3-carboxamide], “++ (Compounds with a Cisplatin sensitization value >0.02 μM but <0.2 μM are marked with “++.”)”. For `Nc1nn2cc(F)cnc2c1C(=O)Nc1cnccc1N1CC(=O)N2CCCC2C1` (stereo not shown) [I-N-222, 2-amino-6-fluoro-N-(4-(4-oxohexahydropyrrolo[1,2-a]pyrazin-2(1H)-yl)pyridin-3-yl)pyrazolo[1,5-a]pyrimidine-3-carboxamide] the value was “++ (Compounds with a Cisplatin sensitization value >0.02 μM but <0.2 μM are marked with “++.”)”. For `Cc1ccnn1-c1ccncc1NC(=O)c1c(N)nn2cc(F)cnc12` [I-N-223, 2-amino-6-fluoro-N-(4-(5-methyl-1H-pyrazol-1-yl)pyridin-3-yl)pyrazolo[1,5-a]pyrimidine-3-carboxamide] the value was “++ (Compounds with a Cisplatin sensitization value >0.02 μM but <0.2 μM are marked with “++.”)”; for `CN1C[C@@H]2CCN(c3ccncc3NC(=O)c3c(N)nn4cc(F)cnc34)C[C@@H]2C1=O` [I-N-224, 2-amino-6-fluoro-N-(4-((3aR,7aR)-2-methyl-3-oxohexahydro-1H-pyrrolo[3,4-c]pyridin-5(6H)-yl)pyridin-3-yl)pyrazolo[1,5-a]pyrimidine-3-carboxamide], “+ (Compounds with a Cisplatin sensitization value >0.2 μM but <5 μM are marked with “+.”)”. As for `Cc1ccn(-c2ccncc2NC(=O)c2c(N)nn3cc(F)cnc23)n1` [I-N-225, 2-amino-6-fluoro-N-(4-(3-methyl-1H-pyrazol-1-yl)pyridin-3-yl)pyrazolo[1,5-a]pyrimidine-3-carboxamide], the “Cisplatin Sensitization Assay” value was “++ (Compounds with a Cisplatin sensitization value >0.02 μM but <0.2 μM are marked with “++.”)”. `Nc1nn2cc(F)cnc2c1C(=O)Nc1cnccc1N1CCC2(CC1)COC2` [I-N-226, N-(4-(2-oxa-7-azaspiro[3.5]nonan-7-yl)pyridin-3-yl)-2-amino-6-fluoropyrazolo[1,5-a]pyrimidine-3-carboxamide]: the “Cisplatin Sensitization Assay” value is on record as “+++ (Compounds with a Cisplatin sensitization value of <0.02 μM are marked with “+++.”)”. The value for `CN1CCOCC1C(=O)N1CCN(c2c(F)cncc2NC(=O)c2c(N)nn3cc(F)cnc23)CC1` (stereo not shown) [I-N-227, 2-amino-6-fluoro-N-(5-fluoro-4-(4-(4-methylmorpholine-3-carbonyl)piperazin-1-yl)pyridin-3-yl)pyrazolo[1,5-a]pyrimidine-3-carboxamide] was “+++ (Compounds with a Cisplatin sensitization value of <0.02 μM are marked with “+++.”)”; that for `Nc1nn2cc(F)cnc2c1C(=O)Nc1cncc(F)c1N1CCN(CC(=O)N2CCC2)CC1` [I-N-228, 2-amino-N-(4-(4-(2-(azetidin-1-yl)-2-oxoethyl)piperazin-1-yl)-5-fluoropyridin-3-yl)-6-fluoropyrazolo[1,5-a]pyrimidine-3-carboxamide] was “+++ (Compounds with a Cisplatin sensitization value of <0.02 μM are marked with “+++.”)”; that for `CN1CC2(CCN(c3c(F)cncc3NC(=O)c3c(N)nn4cc(F)cnc34)CC2)OC1=O` [I-N-229, 2-amino-6-fluoro-N-(5-fluoro-4-(3-methyl-2-oxo-1-oxa-3,8-diazaspiro[4.5]decan-8-yl)pyridin-3-yl)pyrazolo[1,5-a]pyrimidine-3-carboxamide] was “+++ (Compounds with a Cisplatin sensitization value of <0.02 μM are marked with “+++.”)”.

For `Nc1nn2cc(F)cnc2c1C(=O)Nc1cnccc1N1CCC(N2CCCC2=O)CC1` [I-N-230, 2-amino-6-fluoro-N-(4-(4-(2-oxopyrrolidin-1-yl)piperidin-1-yl)pyridin-3-yl)pyrazolo[1,5-a]pyrimidine-3-carboxamide], the “Cisplatin Sensitization Assay” value is “+++ (Compounds with a Cisplatin sensitization value of <0.02 μM are marked with “+++.”)”. As to `CN1CC2(CCC1=O)CCN(c1ccncc1NC(=O)c1c(N)nn3cc(F)cnc13)CC2` [I-N-231, 2-amino-6-fluoro-N-(4-(2-methyl-3-oxo-2,9-diazaspiro[5.5]undecan-9-yl)pyridin-3-yl)pyrazolo[1,5-a]pyrimidine-3-carboxamide], the “Cisplatin Sensitization Assay” value is “+++ (Compounds with a Cisplatin sensitization value of <0.02 μM are marked with “+++.”)”. For `Nc1nn2cc(F)cnc2c1C(=O)Nc1cncc(F)c1N1CC(=O)N2CCCC2C1` (stereo not shown) [I-N-232, 2-amino-6-fluoro-N-(5-fluoro-4-(4-oxohexahydropyrrolo[1,2-a]pyrazin-2(1H)-yl)pyridin-3-yl)pyrazolo[1,5-a]pyrimidine-3-carboxamide] the value was “++ (Compounds with a Cisplatin sensitization value >0.02 μM but <0.2 μM are marked with “++.”)”.

The record behind these values is patent US10787452B2 (Vertex Pharmaceuticals Incorporated, priority 2012, dated 2020).
